{"source": "paper PMC9686516", "about": "“Pharmacokinetic Characteristics of Nebulized Colistimethate Sodium Using Two Different Types of Nebulizers in Critically Ill Patients with Ventilator-Associated Respiratory Infections” (Antibiotics, 2022)", "conditions": "in vivo", "procedure": "Subjects were medically followed during the nebulization phase and the post-nebulization period for the development of side effects, especially those related to the respiratory system. In cases of significant hypoxemia and/or bronchospasm, the nebulization and lavage processes were suspended, and the patient was treated as clinically indicated."}
{"substance": "colistimethate sodium [CMS]", "values": [{"measurement": "deterioration of oxygenation during the nebulization", "result": "no instances of clinically important deterioration of oxygenation"}]}
